Results on 19 compounds are retold here after PubChem BioAssay AID330 (DTP/NCI, 2004).

This experiment relates to P388 leukemia ip, CD2F1 mice, survival T/C. Description: NCI In Vivo Anticancer Drug Screen. Data for tumor model P388 Leukemia (intraperitoneal) in CD2F1 (CDF1) mice. Conditions: endpoint: median survival time, higher = longer survival. The gist of the method:
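Mice carrying the transplanted tumor received test compound or vehicle. Survival was recorded in each group, and the value is the treated-group measurement divided by that of the vehicle-treated control group.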

The mark [1] stands for this setting: dose: 50.0 mg/kg/injection, schedule: Q01DX009 (ip), vehicle: saline with Tween-80.
Setting [2] is: dose: 100.0 mg/kg/injection, schedule: Q01DX009 (ip), vehicle: saline with Tween-80.
[3] abbreviates: dose: 200.0 mg/kg/injection, schedule: Q01DX009 (ip), vehicle: Klucel (hydroxypropylcellulose) (HPC).
Setting [4] is: dose: 200.0 mg/kg/injection, schedule: Q01DX009 (ip), vehicle: saline with Tween-80.
Where [5] appears, read: dose: 400.0 mg/kg/injection, schedule: Q01DX009 (ip), vehicle: saline with Tween-80.
Where [6] appears, read: dose: 100.0 mg/kg/injection, schedule: Q01DX001 (ip), vehicle: saline with Tween-80.
The mark [7] stands for this setting: dose: 25.0 mg/kg/injection, schedule: Q01DX005 (ip), vehicle: saline.
The mark [8] stands for this setting: dose: 50.0 mg/kg/injection, schedule: Q01DX005 (ip), vehicle: saline.
Where [9] appears, read: dose: 100.0 mg/kg/injection, schedule: Q01DX005 (ip), vehicle: saline.
Setting [10] is: dose: 60.0 mg/kg/injection, schedule: Q01DX005 (ip), vehicle: saline with Tween-80.
The mark [11] stands for this setting: dose: 120.0 mg/kg/injection, schedule: Q01DX005 (ip), vehicle: saline with Tween-80.
The mark [12] stands for this setting: dose: 240.0 mg/kg/injection, schedule: Q01DX005 (ip), vehicle: saline with Tween-80.
[13] abbreviates: dose: 50.0 mg/kg/injection, schedule: Q01DX005 (ip), vehicle: Klucel (hydroxypropylcellulose) (HPC).
[14] abbreviates: dose: 100.0 mg/kg/injection, schedule: Q01DX005 (ip), vehicle: Klucel (hydroxypropylcellulose) (HPC).
Where [15] appears, read: dose: 50.0 mg/kg/injection, schedule: Q01DX005 (ip), vehicle: saline with Tween-80.
The mark [16] stands for this setting: dose: 100.0 mg/kg/injection, schedule: Q01DX005 (ip), vehicle: saline with Tween-80.

Several values for one entry are separate records, joined by “and”; a condition that tells them apart may be missing. Equal entries are not always repeated. Inconclusive results and toxic doses are left out.

Turning to `OC(CBr)C(O)C(O)C(O)CBr` (stereo not given), the T/C (dose: 12.5 mg/kg/injection, schedule: Q01DX009 (ip), vehicle: Klucel (hydroxypropylcellulose) (HPC)) is 106 % of control; the T/C (dose: 36.0 mg/kg/injection, schedule: Q01DX005 (ip), vehicle: Klucel (hydroxypropylcellulose) (HPC)) was 107 % of control and 109 % of control; the T/C (dose: 50.0 mg/kg/injection, schedule: Q01DX009 (ip), vehicle: Klucel (hydroxypropylcellulose) (HPC)) was 115 % of control; the T/C (dose: 50.0 mg/kg/injection, schedule: Q01DX009 (ip), vehicle: distilled water + Tween-80) was 114 % of control; the T/C under setting [1] was 107 % of control; the T/C (dose: 50.0 mg/kg/injection, schedule: Q01DX009 (ip), vehicle: saline) was 96 % of control. Besides, the T/C by setting is: (dose: 50.0 mg/kg/injection, schedule: Q01DX010 (ip), vehicle: saline) 109 % of control; (dose: 53.0 mg/kg/injection, schedule: Q01DX005 (ip), vehicle: Klucel (hydroxypropylcellulose) (HPC)) 120 % of control; (dose: 80.0 mg/kg/injection, schedule: Q01DX005 (ip), vehicle: Klucel (hydroxypropylcellulose) (HPC)) 173 % of control; (dose: 100.0 mg/kg/injection, schedule: Q01DX009 (ip), vehicle: distilled water + Tween-80) 124 % of control; under setting [2], 114 % of control; (dose: 100.0 mg/kg/injection, schedule: Q01DX009 (ip), vehicle: saline) 123 % of control. For the same compound, the T/C by setting is: (dose: 100.0 mg/kg/injection, schedule: Q01DX010 (ip), vehicle: saline) 109 % of control; (dose: 120.0 mg/kg/injection, schedule: Q01DX005 (ip), vehicle: Klucel (hydroxypropylcellulose) (HPC)) 170 % of control and 207 % of control; (dose: 180.0 mg/kg/injection, schedule: Q01DX005 (ip), vehicle: Klucel (hydroxypropylcellulose) (HPC)) 163 % of control and 181 % of control; under setting [3], 107 % of control; (dose: 200.0 mg/kg/injection, schedule: Q01DX009 (ip), vehicle: distilled water + Tween-80) 122 % of control; under setting [4], 113 % of control. Besides, the T/C was 109 % of control (dose: 200.0 mg/kg/injection, schedule: Q01DX010 (ip), vehicle: saline); 190 % of control (dose: 200.0 mg/kg/injection, schedule: Q04DX003 (ip), vehicle: Klucel (hydroxypropylcellulose) (HPC)); 200 % of control (dose: 300.0 mg/kg/injection, schedule: Q04DX003 (ip), vehicle: Klucel (hydroxypropylcellulose) (HPC)); 93 % of control (dose: 400.0 mg/kg/injection, schedule: Q01DX009 (ip), vehicle: Klucel (hydroxypropylcellulose) (HPC)); 86 % of control (dose: 400.0 mg/kg/injection, schedule: Q01DX009 (ip), vehicle: distilled water + Tween-80); 117 % of control under setting [5]. Where the note is “dose: 800.0 mg/kg/injection, schedule: Q01DX009 (ip), vehicle: saline with Tween-80”, the T/C is 120 % of control.
On to `c1ccc(CCN2COc3c(ccc4cccnc34)C2)cc1`, for which the T/C reads like this: (dose: 25.0 mg/kg/injection, schedule: Q04DX003 (ip), vehicle: saline with Tween-80) 110 % of control; (dose: 50.0 mg/kg/injection, schedule: Q04DX003 (ip), vehicle: saline with Tween-80) 110 % of control; (dose: 100.0 mg/kg/injection, schedule: Q04DX003 (ip), vehicle: saline with Tween-80) 100 % of control.
Regarding `COc1nnnc2c1sc1ccccc12`, the T/C runs as follows: under setting [6], 101 % of control; (dose: 200.0 mg/kg/injection, schedule: Q01DX001 (ip), vehicle: saline with Tween-80) 104 % of control; (dose: 400.0 mg/kg/injection, schedule: Q01DX001 (ip), vehicle: saline with Tween-80) 102 % of control.
For the compound `O=C1CN(C2OC(CO)C(O)C2O)C(=O)NC1=O` (stereo not given), the T/C runs as follows: under setting [7], 112 % of control; under setting [8], 113 % of control; (dose: 50.0 mg/kg/injection, schedule: Q01DX005 (ip), vehicle: suspension in saline) 100 % of control; under setting [9], 99 % of control and 116 % of control; (dose: 100.0 mg/kg/injection, schedule: Q01DX005 (ip), vehicle: suspension in saline) 107 % of control; (dose: 200.0 mg/kg/injection, schedule: Q01DX005 (ip), vehicle: saline) 116 % of control. Moreover, the T/C runs as follows: (dose: 200.0 mg/kg/injection, schedule: Q01DX005 (ip), vehicle: suspension in saline) 109 % of control; (dose: 400.0 mg/kg/injection, schedule: Q01DX005 (ip), vehicle: suspension in saline) 116 % of control.
Turning to `CC1CC(=O)N1C(=O)CCN=C=S` (stereo not given), the T/C runs as follows: under setting [10], 111 % of control; under setting [11], 120 % of control; under setting [12], 117 % of control.
In the case of `CCCCCC(O)(CCCCC)CCCCC`, the T/C (dose: 60.0 mg/kg/injection, schedule: Q01DX005 (ip), vehicle: saline) was 101 % of control; the T/C (dose: 120.0 mg/kg/injection, schedule: Q01DX005 (ip), vehicle: saline) is 101 % of control; the T/C (dose: 240.0 mg/kg/injection, schedule: Q01DX005 (ip), vehicle: saline) was 92 % of control.
`C[Si]1(C)CC[Si](C)(C)OS(=O)(=O)CS(=O)(=O)O1`: the T/C is 100 % of control under setting [13] and 105 % of control under setting [14].
Take `NCC(O)c1ccc(Nc2ccnc3cc(Cl)ccc23)cc1` (stereo not given): the T/C is 114 % of control under setting [8] and 105 % of control under setting [9].
As for `CN(C)CCCNCCCCNCCCN(C)C`, the T/C is 105 % of control under setting [1], 110 % of control under setting [2] and 110 % of control under setting [4].
Consider `CCCCS(=O)(=O)C(C)(Cl)C(=O)OCC` (stereo not given), for which the T/C reads like this: (dose: 25.0 mg/kg/injection, schedule: Q01DX001 (ip), vehicle: saline with Tween-80) 100 % of control; (dose: 50.0 mg/kg/injection, schedule: Q01DX001 (ip), vehicle: saline with Tween-80) 100 % of control; under setting [6], 106 % of control and 93 % of control.
`O=S(=O)(Oc1cccc2ccccc12)C(F)(F)C(F)(F)C(F)(F)C(F)(F)F`: the T/C by setting is: under setting [1], 108 % of control; under setting [2], 108 % of control; under setting [4], 105 % of control.
As for `COC1=CC(=[N+]2CCCCC2)CC(C)(C)C1`, the T/C reads like this: under setting [7], 98 % of control; under setting [8], 100 % of control.
With `COc1ccc(/C=C\Cc2cc3c(cc2OCCO)OCO3)cc1`, the T/C under setting [10] was 101 % of control, the T/C under setting [11] was 94 % of control and the T/C under setting [12] is 98 % of control.
For the compound `CCOC(=O)N1C(C(=O)c2ccc(C)cc2)N(C2CCCCC2)C(c2ccccc2)N1C(=O)OCC` (stereo not given), the T/C under setting [5] is 86 % of control.
Take `CC(OCc1ccccc1)C(NC(=O)OC(C)(C)C)C(=O)O` (stereo not given): the T/C by setting is: under setting [13], 113 % of control; under setting [15], 103 % of control; under setting [14], 94 % of control; under setting [16], 100 % of control; (dose: 200.0 mg/kg/injection, schedule: Q01DX005 (ip), vehicle: Klucel (hydroxypropylcellulose) (HPC)) 96 % of control; (dose: 200.0 mg/kg/injection, schedule: Q01DX005 (ip), vehicle: saline with Tween-80) 98 % of control.
Turning to `Cc1noc(-c2ccc([N+](=O)[O-])o2)n1`, the T/C was 100 % of control (dose: 130.0 mg/kg/injection, schedule: Q01DX009 (ip), vehicle: Klucel (hydroxypropylcellulose) (HPC)) and 104 % of control under setting [3].
Turning to `CCOC(=O)/C=C1\SC(C)(C)C1NC(=O)OCc1ccccc1` (stereo not given), the T/C is, setting by setting: (dose: 15.0 mg/kg/injection, schedule: Q01DX005 (ip), vehicle: Klucel (hydroxypropylcellulose) (HPC)) 94 % of control; (dose: 30.0 mg/kg/injection, schedule: Q01DX005 (ip), vehicle: Klucel (hydroxypropylcellulose) (HPC)) 103 % of control; (dose: 60.0 mg/kg/injection, schedule: Q01DX005 (ip), vehicle: Klucel (hydroxypropylcellulose) (HPC)) 91 % of control and 93 % of control.
Take `CC1C[As+](c2ccccc2)(c2ccccc2)CC(C)N1C.[O-][Cl+3]([O-])([O-])[O-]` (stereo not given): the T/C reads like this: (dose: 25.0 mg/kg/injection, schedule: Q01DX009 (ip), vehicle: saline with Tween-80) 100 % of control; under setting [1], 104 % of control; under setting [2], 106 % of control.
In the case of `ClCCN1c2ccc3ccccc3c2Sc2ccc3ccccc3c21`, the T/C under setting [15] was 95 % of control and the T/C under setting [16] was 89 % of control.
